What was measured:
[1] = target: GDP-bound NRAS wild-type protein (Homo sapiens, UniProt P01111); assay: Binding to NRAS by surface plasmon resonance (SPR), Single Cycle Kinetics; details: SPR; KD ratio class
[2] = tested on: human lung cancer strain NCI-H441; assay: cells; details: NCI-H441, 96 h, read-out: NCI-H441 IC50 (nM)
[3] = target: GDP-bound HRAS wild-type protein (Homo sapiens, UniProt P01112); assay: Binding to HRAS by surface plasmon resonance (SPR), Single Cycle Kinetics; details: SPR; KD ratio class
GDP-bound HRAS wild-type protein, sequence (P01112 whole entry): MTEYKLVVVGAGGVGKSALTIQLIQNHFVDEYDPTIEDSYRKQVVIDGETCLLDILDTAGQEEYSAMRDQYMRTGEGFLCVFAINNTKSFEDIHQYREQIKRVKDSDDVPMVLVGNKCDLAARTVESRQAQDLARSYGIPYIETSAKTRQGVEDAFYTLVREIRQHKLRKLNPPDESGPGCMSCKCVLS

GDP-bound NRAS wild-type protein, sequence (P01111 whole entry): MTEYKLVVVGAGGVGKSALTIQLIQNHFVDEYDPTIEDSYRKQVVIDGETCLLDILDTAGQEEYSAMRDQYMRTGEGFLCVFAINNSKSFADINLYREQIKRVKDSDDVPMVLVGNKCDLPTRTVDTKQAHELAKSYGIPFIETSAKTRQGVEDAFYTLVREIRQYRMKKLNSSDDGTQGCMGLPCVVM

CCO[C@@H]1C[C@H]2C(=O)NC3(CCC3)C(=O)N(C)[C@@H](C(CC)CC)C(=O)N(C)[C@H](C(=O)N(C)C)CC(=O)N(C)[C@@H](CC3CCCC3)C(=O)N[C@@H]([C@@H](C)CC)C(=O)N(C)CC(=O)N(C)[C@H]3C/C=C\CCN(C3=O)[C@@H](Cc3ccc(F)cc3)C(=O)N(C)CC(=O)N[C@@H](CCc3cc(F)c(C(F)(F)F)c(F)c3)C(=O)N2C1 [PP1517]
NRAS/KRAS (ratio of KD value for GDP-bound NRAS wild-type protein to KD value for KRAS) [1]: A (a compound having 10 or more and less than 20 is denoted as A)
IC50 [2]: 33.6 nM
HRAS/KRAS (ratio of KD value for GDP-bound HRAS wild-type protein to KD value for KRAS) [3]: A (a compound having 10 or more and less than 20 is denoted as A)

CCO[C@@H]1C[C@H]2C(=O)NC3(CCC3)C(=O)N(C)[C@@H](C(CC)CC)C(=O)N(C)[C@H](C(=O)N(C)C)CC(=O)N(C)[C@@H](CC(C)C)C(=O)N[C@@H]([C@@H](C)CC)C(=O)N(C)CC(=O)N(C)[C@H]3C/C=C\CCN(C3=O)[C@@H](Cc3ccc(F)cc3C)C(=O)N(C)CC(=O)N[C@@H](CCc3cc(F)c(C(F)(F)F)c(F)c3)C(=O)N2C1 [PP1518]
NRAS/KRAS (ratio of KD value for GDP-bound NRAS wild-type protein to KD value for KRAS) [1]: A (a compound having 10 or more and less than 20 is denoted as A)
IC50 [2]: 49.4 nM
HRAS/KRAS (ratio of KD value for GDP-bound HRAS wild-type protein to KD value for KRAS) [3]: B (a compound having 3 or more and less than 10 is denoted as B)

CCO[C@@H]1C[C@H]2C(=O)NC3(CCC3)C(=O)N(C)[C@@H](C(CC)CC)C(=O)N(C)[C@H](C(=O)N(C)C)CC(=O)N(C)[C@@H](CC(C)C)C(=O)N[C@@H]([C@@H](C)CC)C(=O)N(C)CC(=O)N(C)[C@H]3C/C=C\CCN(C3=O)[C@@H](Cc3ccc(F)cc3)C(=O)N(C)CC(=O)N[C@@H](CCc3cc(F)c(C(F)(F)F)c(F)c3)C(=O)N2C1 [PP1519]
NRAS/KRAS (ratio of KD value for GDP-bound NRAS wild-type protein to KD value for KRAS) [1]: A (a compound having 10 or more and less than 20 is denoted as A)
IC50 [2]: 78.2 nM
HRAS/KRAS (ratio of KD value for GDP-bound HRAS wild-type protein to KD value for KRAS) [3]: A (a compound having 10 or more and less than 20 is denoted as A)

CCO[C@@H]1C[C@H]2C(=O)NC3(CCC3)C(=O)N(C)[C@@H](C(CC)CC)C(=O)N(C)[C@H](C)CC(=O)N(C)[C@@H](CC3CC3)C(=O)N[C@@H]([C@@H](C)CC)C(=O)N(C)CC(=O)N(C)[C@H]3C/C=C\CCN(C3=O)[C@@H](Cc3ccc(F)cc3C)C(=O)N(C)CC(=O)N[C@@H](CCc3cc(F)c(C(F)(F)F)c(F)c3)C(=O)N2C1 [PP1520]
NRAS/KRAS (ratio of KD value for GDP-bound NRAS wild-type protein to KD value for KRAS) [1]: A (a compound having 10 or more and less than 20 is denoted as A)
IC50 [2]: 575 nM
HRAS/KRAS (ratio of KD value for GDP-bound HRAS wild-type protein to KD value for KRAS) [3]: A (a compound having 10 or more and less than 20 is denoted as A)

CCO[C@@H]1C[C@H]2C(=O)NC3(CCC3)C(=O)N(C)[C@@H](C(CC)CC)C(=O)N(C)[C@H](C)CC(=O)N(C)[C@@H](CC3CC3)C(=O)N[C@@H]([C@@H](C)CC)C(=O)N(C)CC(=O)N(C)[C@H]3C/C=C\CCN(C3=O)[C@@H](Cc3ccc(F)cc3)C(=O)N(C)CC(=O)N[C@@H](CCc3cc(F)c(C(F)(F)F)c(F)c3)C(=O)N2C1 [PP1521]
NRAS/KRAS (ratio of KD value for GDP-bound NRAS wild-type protein to KD value for KRAS) [1]: A (a compound having 10 or more and less than 20 is denoted as A)
IC50 [2]: 173 nM
HRAS/KRAS (ratio of KD value for GDP-bound HRAS wild-type protein to KD value for KRAS) [3]: B (a compound having 3 or more and less than 10 is denoted as B)

CCO[C@@H]1C[C@H]2C(=O)NC3(CCC3)C(=O)N(C)[C@@H](C(CC)CC)C(=O)N(C)[C@H](C)CC(=O)N(C)[C@@H](CC3CCCC3)C(=O)N[C@@H]([C@@H](C)CC)C(=O)N(C)CC(=O)N(C)[C@H]3C/C=C\CCN(C3=O)[C@@H](Cc3ccc(F)cc3C)C(=O)N(C)CC(=O)N[C@@H](CCc3cc(F)c(C(F)(F)F)c(F)c3)C(=O)N2C1 [PP1522]
NRAS/KRAS (ratio of KD value for GDP-bound NRAS wild-type protein to KD value for KRAS) [1]: A (a compound having 10 or more and less than 20 is denoted as A)
IC50 [2]: 567 nM
HRAS/KRAS (ratio of KD value for GDP-bound HRAS wild-type protein to KD value for KRAS) [3]: A (a compound having 10 or more and less than 20 is denoted as A)

CCO[C@@H]1C[C@H]2C(=O)NC3(CCC3)C(=O)N(C)[C@@H](C(CC)CC)C(=O)N(C)[C@H](C)CC(=O)N(C)[C@@H](CC(C)C)C(=O)N[C@@H]([C@@H](C)CC)C(=O)N(C)CC(=O)N(C)[C@H]3C/C=C\CCN(C3=O)[C@@H](Cc3ccc(F)cc3C)C(=O)N(C)CC(=O)N[C@@H](CCc3cc(F)c(C(F)(F)F)c(F)c3)C(=O)N2C1 [PP1524]
NRAS/KRAS (ratio of KD value for GDP-bound NRAS wild-type protein to KD value for KRAS) [1]: B (a compound having 3 or more and less than 10 is denoted as B)
IC50 [2]: 439 nM
HRAS/KRAS (ratio of KD value for GDP-bound HRAS wild-type protein to KD value for KRAS) [3]: B (a compound having 3 or more and less than 10 is denoted as B)

CCO[C@@H]1C[C@H]2C(=O)NC3(CCC3)C(=O)N(C)[C@@H](C(CC)CC)C(=O)N(C)[C@H](C)CC(=O)N(C)[C@@H](CC(C)C)C(=O)N[C@@H]([C@@H](C)CC)C(=O)N(C)CC(=O)N(C)[C@H]3C/C=C\CCN(C3=O)[C@@H](Cc3ccc(F)cc3)C(=O)N(C)CC(=O)N[C@@H](CCc3cc(F)c(C(F)(F)F)c(F)c3)C(=O)N2C1 [PP1525]
NRAS/KRAS (ratio of KD value for GDP-bound NRAS wild-type protein to KD value for KRAS) [1]: A (a compound having 10 or more and less than 20 is denoted as A)
IC50 [2]: 132 nM
HRAS/KRAS (ratio of KD value for GDP-bound HRAS wild-type protein to KD value for KRAS) [3]: A (a compound having 10 or more and less than 20 is denoted as A)

CCO[C@@H]1C[C@H]2C(=O)NC3(CCC3)C(=O)N(C)[C@@H](C(CC)CC)C(=O)N(C)[C@H](C(=O)N3CCOCC3)CC(=O)N(C)[C@@H](CC3CC3)C(=O)N[C@@H]([C@@H](C)CC)C(=O)N(C)CC(=O)N(C)[C@H]3C/C=C\CCN(C3=O)[C@@H](Cc3ccc(F)cc3C)C(=O)N(C)CC(=O)N[C@@H](CCc3cc(F)c(C(F)(F)F)c(F)c3)C(=O)N2C1 [PP1526]
NRAS/KRAS (ratio of KD value for GDP-bound NRAS wild-type protein to KD value for KRAS) [1]: A (a compound having 10 or more and less than 20 is denoted as A)
IC50 [2]: 118 nM
HRAS/KRAS (ratio of KD value for GDP-bound HRAS wild-type protein to KD value for KRAS) [3]: A (a compound having 10 or more and less than 20 is denoted as A)

CCO[C@@H]1C[C@H]2C(=O)NC3(CCC3)C(=O)N(C)[C@@H](C(CC)CC)C(=O)N(C)[C@H](C(=O)N3CCOCC3)CC(=O)N(C)[C@@H](CC3CC3)C(=O)N[C@@H]([C@@H](C)CC)C(=O)N(C)CC(=O)N(C)[C@H]3C/C=C\CCN(C3=O)[C@@H](Cc3ccc(F)cc3)C(=O)N(C)CC(=O)N[C@@H](CCc3cc(F)c(C(F)(F)F)c(F)c3)C(=O)N2C1 [PP1527]
NRAS/KRAS (ratio of KD value for GDP-bound NRAS wild-type protein to KD value for KRAS) [1]: A (a compound having 10 or more and less than 20 is denoted as A)
IC50 [2]: 143 nM
HRAS/KRAS (ratio of KD value for GDP-bound HRAS wild-type protein to KD value for KRAS) [3]: A (a compound having 10 or more and less than 20 is denoted as A)

CCO[C@@H]1C[C@H]2C(=O)NC3(CCC3)C(=O)N(C)[C@@H](C3CCCC3)C(=O)N(C)[C@H](C(=O)N(C)C)CC(=O)N(C)[C@@H](CC3CC3)C(=O)N[C@@H]([C@@H](C)CC)C(=O)N(C)CC(=O)N(C)[C@H]3C/C=C\CCN(C3=O)[C@@H](Cc3ccc(F)cc3C)C(=O)N(C)CC(=O)N[C@@H](CCc3cc(F)c(C(F)(F)F)c(F)c3)C(=O)N2C1 [PP1528]
NRAS/KRAS (ratio of KD value for GDP-bound NRAS wild-type protein to KD value for KRAS) [1]: A (a compound having 10 or more and less than 20 is denoted as A)
IC50 [2]: 45.6 nM
HRAS/KRAS (ratio of KD value for GDP-bound HRAS wild-type protein to KD value for KRAS) [3]: B (a compound having 3 or more and less than 10 is denoted as B)

CCO[C@@H]1C[C@H]2C(=O)NC3(CCC3)C(=O)N(C)[C@@H](C3CCCC3)C(=O)N(C)[C@H](C(=O)N(C)C)CC(=O)N(C)[C@@H](CC3CCCC3)C(=O)N[C@@H]([C@@H](C)CC)C(=O)N(C)CC(=O)N(C)[C@H]3C/C=C\CCN(C3=O)[C@@H](Cc3ccc(F)cc3C)C(=O)N(C)CC(=O)N[C@@H](CCc3cc(F)c(C(F)(F)F)c(F)c3)C(=O)N2C1 [PP1530]
NRAS/KRAS (ratio of KD value for GDP-bound NRAS wild-type protein to KD value for KRAS) [1]: A (a compound having 10 or more and less than 20 is denoted as A)
IC50 [2]: 17.2 nM
HRAS/KRAS (ratio of KD value for GDP-bound HRAS wild-type protein to KD value for KRAS) [3]: B (a compound having 3 or more and less than 10 is denoted as B)

CCO[C@@H]1C[C@H]2C(=O)NC3(CCC3)C(=O)N(C)[C@@H](C3CCCC3)C(=O)N(C)[C@H](C(=O)N(C)C)CC(=O)N(C)[C@@H](CC(C)C)C(=O)N[C@@H]([C@@H](C)CC)C(=O)N(C)CC(=O)N(C)[C@H]3C/C=C\CCN(C3=O)[C@@H](Cc3ccc(F)cc3C)C(=O)N(C)CC(=O)N[C@@H](CCc3cc(F)c(C(F)(F)F)c(F)c3)C(=O)N2C1 [PP1532]
NRAS/KRAS (ratio of KD value for GDP-bound NRAS wild-type protein to KD value for KRAS) [1]: A (a compound having 10 or more and less than 20 is denoted as A)
IC50 [2]: 13.4 nM
HRAS/KRAS (ratio of KD value for GDP-bound HRAS wild-type protein to KD value for KRAS) [3]: B (a compound having 3 or more and less than 10 is denoted as B)

CCCC[C@H]1C(=O)N[C@@H]([C@@H](C)CC)C(=O)N(C)CC(=O)N(C)[C@H]2C/C=C\CCN(C2=O)[C@@H](Cc2ccc(C(F)(F)F)cc2)C(=O)N(C)CC(=O)N[C@@H](CCc2cc(F)c(C(F)(F)F)c(F)c2)C(=O)N2C[C@H](OCC)C[C@H]2C(=O)NC2(CCC2)C(=O)N(C)[C@@H](C2CCCC2)C(=O)N(C)[C@H](C(=O)N(C)CC)CC(=O)N1C [PP1558]
NRAS/KRAS (ratio of KD value for GDP-bound NRAS wild-type protein to KD value for KRAS) [1]: A (a compound having 10 or more and less than 20 is denoted as A)
IC50 [2]: 3.4 nM
HRAS/KRAS (ratio of KD value for GDP-bound HRAS wild-type protein to KD value for KRAS) [3]: B (a compound having 3 or more and less than 10 is denoted as B)

CCO[C@@H]1C[C@H]2C(=O)NC3(CC(C)(C)C3)C(=O)N(C)[C@@H](C3CCCC3)C(=O)N(C)[C@H](C(=O)N(C)C)CC(=O)N(C)[C@@H](CC)C(=O)N[C@@H]([C@@H](C)CC)C(=O)N(C)CC(=O)N(C)[C@H]3C/C=C\CCN(C3=O)[C@@H](Cc3ccc(C(F)(F)F)cc3)C(=O)N(C)CC(=O)N[C@@H](CCc3ccc(C(F)(F)F)c(OC)c3)C(=O)N2C1 [PP1559]
NRAS/KRAS (ratio of KD value for GDP-bound NRAS wild-type protein to KD value for KRAS) [1]: A (a compound having 10 or more and less than 20 is denoted as A)
IC50 [2]: 1.8 nM
HRAS/KRAS (ratio of KD value for GDP-bound HRAS wild-type protein to KD value for KRAS) [3]: A (a compound having 10 or more and less than 20 is denoted as A)
